Among the data in US5523406A, “2-substituted tertiary carbinol derivatives of 1,5-iminosugars” (G. D. Searle & Co., priority 1994, dated 1996) are IC50, cytotoxicity and CC50 values, retold here.

In brackets after ≈: the same amount, converted by molar mass. Where two headings read alike, the source gives them in different places.

The subject of data set [1] is HIV-1, strain HTVL-IIIB. Put plainly: Inhibition of HIV-1 cytopathogenic effect in Leu-3a-positive CEM cells, MTT endpoint (Method B). As to conditions: Human immunodeficiency virus 1, IIIB, CCRF-CEM, 216 h, read-out: ID50 (the source's name). It is filed as cell-based. Here is the method:
(§1) These tests involved plating of susceptible human host cells which are syncytium-sensitive with and without virus in microculture plates, adding various concentrations of the test compound, incubating the plates for 9 days (during which time infected, non-drug treated control cells are largely or totally destroyed by the virus), and then determining the number of remaining viable cells using a colorimetric endpoint.
Various illustrative compounds synthesized above were tested for inhibition of visna virus in vitro in a plaque reduction assay (Method A) or for inhibition of HIV-1 in a test which measured reduction of cytopathogenic effect in virus-infected synctium-sensitive Leu-3a-positive CEM cells grown in tissue culture (Method B) as follows:
(§2) Tissue culture plates were incubated at 37° C. in a humidified, 5% CO2 atmosphere and observed microscopically for toxicity and/or cytopathogenic effect (CPE). At 1 hour prior to infection, each test article was prepared from the frozen stock, and a 20 μl volume of each dilution (prepared as a 10× concentration) was added to the appropriate wells of both infected and uninfected cells.
(§3) On the 9th day post-infection, the cells in each well were resuspended and a 100 μl sample of each cell suspension was removed for use in an MTT assay. A 20 μl volume of a 5 mg/ml solution of 3-(4,5-dimethylthiazol-2-yl)-2,5-diphenyltetrazolium bromide (MTT) was added to each 100 μl cell suspension, and the cells were incubated at 37° C. in 5% CO2 for 4 hours. […] A 100 μl volume of a solution of 10% sodium dodecyl sulfate in 0.01N hydrochloric acid was added to each sample, and the samples were incubated overnight. The absorbance at 590 nm was determined for each sample using a Molecular Devices Vmax microplate reader. This assay detects drug-induced suppression of viral CPE, as well as drug cytotoxicity, by measuring the generation of MTT-formazan by surviving cells.
(§4) Assays were done in 96-well tissue culture plates. CEM cells were treated with polybrene at a concentration of 2 μg/ml, and an 80 μl volume of cells (1×10^4 cells) was dispensed into each well. A 100 μl volume of each test article dilution (prepared as a 2 ×concentration) was added to 5 wells of cells, and the cells were incubated at 37° C. for 1 hour. A frozen culture of HIV-1, strain HTVL-IIIB, was diluted in culture medium to a concentration of 5×10^4 TCID50 per ml, and a 20 μl volume (containing 10^3 TCID50 of virus) was added to 3 of the wells for each test article concentration. […] A 20 μl volume of normal culture medium was added to the remaining wells to allow evaluation of cytotoxicity. Each plate contained 6 wells of untreated, uninfected, cell control samples and 6 wells of untreated, infected, virus control samples.
For orientation: Damage to the host cells serves as the signal in cytopathic effect assays.

Data set [2] can be described thus: in vitro. It is filed as cell-based. The conditions noted are these: human, cem cells. Here is the method:
as §1, §2, §3, §4

Where [3] appears, read: Table I, Anti HIV Activity, CEM cells, 9 days.

Take `C[C@]1(O)CN[C@@H]2CO[C@@H](c3ccccc3)O[C@H]2[C@@H]1O` [XIV, 1,5-dideoxy-1,5-imino-2-C-methyl-4,6-O-(R-phenylmethylene)TD-glucitol]: in data set [1] (Example 38, inhibition of HIV), the IC50 was 513 µg/mL (≈ 1930 µM).
The molecule `CCCCN1C[C@](C)(O)[C@@H](O)[C@H](O)[C@H]1CO` [XVIA, 1,5-Butylimino-1,5-dideoxy-2-C-methyl-D-glucitol] returned a cytotoxicity at 216 h in data set [2] of 20%. Moreover, the IC50 in data set [1] (setting [3]) stood at 237 µg/mL (≈ 1020 µM).
Taken in the same sequence, the figures for `CC1(O)CN(CCCc2ccccc2)C(CO)C(O)C1O` [XVIB, 1,5-(3-phenylpropylimino)-1,5-dideoxy-2-C-methyl-D-glucitol] were 40% and 492 µg/mL (≈ 1670 µM).
A word on the CC50: it is the concentration that lowers cell viability or growth by half. In data set [2], `CCC(CC)CN1C[C@](C)(O)[C@@H](O)[C@H](O)[C@H]1CO` [XVIC, 1,5-(2-ethylbutylimino) -1,5-dideoxy-2-C-methyl-D-glucitol] registered a CC50 at 216 h of 349 µg/mL (≈ 1340 µM). In addition, in data set [1] (setting [3]), the IC50 was found to be 6 µg/mL (≈ 23 µM).
Molecule `CCCCN1C[C@H](O)[C@@H](O)[C@H](O)[C@H]1CO` [n-Bu, N-butyl DNJ, reference compound] had a CC50 at 216 h in data set [2] of more than 500 µg/mL. The IC50 in data set [1] (setting [3]) was found to be 34 µg/mL (≈ 155 µM).
